Measurements from US20110213193A1, “Magnetic Nanodelivery of Therapeutic Agents Across the Blood Brain Barrier” (THE FLORIDA INTERNATIONAL UNIVERSITY BOARD OF TRUSTEES, priority 2008, published 2011).

Tested on: HIV-1 infected PBMCs
Assay: p24 antigen production by HIV-1 infected PBMCs
Type: cell-based
Details: identical culture conditions, various doses
Method: The efficacy of magnetic nanoparticle-AZTTP was evaluated in an in vitro model system using HIV infected peripheral blood mononuclear cells (PBMCs). […] Therefore, binding of AZTTP to magnetic nanoparticles have no effect on its biological activity.

Structure (SMILES): Cc1cn([C@H]2C[C@H](N=[N+]=[N-])[C@@H](COP(=O)(O)OP(=O)(O)OP(=O)(O)O)O2)c(=O)[nH]c1=O [free AZTTP, 3′-Azido-3′-Deoxythymidine-5′-triphosphate]
- anti-HIV activity of free AZTTP (positive control) and MP-AZTTP compared: similar
